Assays:
[1] = tested on: T-cell; assay: Tested for inhibition of T cell proliferation in the co-mitogen stimulated proliferation assay; format: functional, cell-based; conditions: Homo sapiens
[2] = tested on: Mus musculus; assay: Mean Survival time of the graft was evaluated in murine skin allograft transplantation assay upon intraperitoneal administration of 4 mg/kg dose; format: functional

Row | Structure (SMILES) | IC50 [1] [nM] | MST [2] [days]
1 | CO[C@H]1C[C@@H]2CC[C@@H](C)[C@@](O)(O2)C(=O)C(=O)N2CCCC[C@H]2C(=O)O[C@H]([C@H](C)C[C@@H]2CC[C@@H](O)[C@H](OC)C2)CC(=O)[C@H](C)/C=C(\C)[C@@H](OC(=O)CCCCCNc2ccc(N=[N+]=[N-])cc2[N+](=O)[O-])[C@@H](OC)C(=O)[C@H](C)C[C@H](C)/C=C/C=C/C=C/1C | 7.8 | –
2 | CO[C@H]1C[C@@H]2CC[C@@H](C)[C@@](O)(O2)C(=O)C(=O)N2CCCC[C@H]2C(=O)O[C@H]([C@H](C)C[C@@H]2CC[C@@H](OC(=O)CCCCCCCNc3ccc(N=[N+]=[N-])cc3[N+](=O)[O-])[C@H](OC)C2)CC(=O)[C@H](C)/C=C(\C)[C@@H](O)[C@@H](OC)C(=O)[C@H](C)C[C@H](C)/C=C/C=C/C=C/1C | 10.2 | –
3 | CO[C@H]1C[C@@H]2CC[C@@H](C)[C@@](O)(O2)C(=O)C(=O)N2CCCC[C@H]2C(=O)O[C@H]([C@H](C)C[C@@H]2CC[C@@H](OC(=O)Cc3ccc(N=[N+]=[N-])cc3)[C@H](OC)C2)CC(=O)[C@H](C)/C=C(\C)[C@@H](O)[C@@H](OC)C(=O)[C@H](C)C[C@H](C)/C=C/C=C/C=C/1C | 1 | 10.7
4 | CO[C@H]1C[C@@H]2CC[C@@H](C)[C@@](O)(O2)C(=O)C(=O)N2CCCC[C@H]2C(=O)O[C@H]([C@H](C)C[C@@H]2CC[C@@H](OC(=O)Cc3ccc(N=[N+]=[N-])c(I)c3)[C@H](OC)C2)CC(=O)[C@H](C)/C=C(\C)[C@@H](O)[C@@H](OC)C(=O)[C@H](C)C[C@H](C)/C=C/C=C/C=C/1C | 3 | 12.7
5 | CO[C@H]1C[C@@H]2CC[C@@H](C)[C@@](O)(O2)C(=O)C(=O)N2CCCC[C@H]2C(=O)O[C@H]([C@H](C)C[C@@H]2CC[C@@H](O)[C@H](OC)C2)CC(=O)[C@H](C)/C=C(\C)[C@@H](OC(=O)Cc2ccc(N=[N+]=[N-])cc2)[C@@H](OC)C(=O)[C@H](C)C[C@H](C)/C=C/C=C/C=C/1C | 5.8 | –
6 | CO[C@H]1C[C@@H]2CC[C@@H](C)[C@@](O)(O2)C(=O)C(=O)N2CCCC[C@H]2C(=O)O[C@H]([C@H](C)C[C@@H]2CC[C@@H](O)[C@H](OC)C2)CC(=O)[C@H](C)/C=C(\C)[C@@H](OC(=O)CCCCCCCNc2ccc(N=[N+]=[N-])cc2[N+](=O)[O-])[C@@H](OC)C(=O)[C@H](C)C[C@H](C)/C=C/C=C/C=C/1C | 10.5 | –
7 | CO[C@H]1C[C@@H]2CC[C@@H](C)[C@@](O)(O2)C(=O)C(=O)N2CCCC[C@H]2C(=O)O[C@H]([C@H](C)C[C@@H]2CC[C@@H](OC(=O)CCCCCNc3ccc(N=[N+]=[N-])cc3[N+](=O)[O-])[C@H](OC)C2)CC(=O)[C@H](C)/C=C(\C)[C@@H](O)[C@@H](OC)C(=O)[C@H](C)C[C@H](C)/C=C/C=C/C=C/1C | 2.5 | –
8 | CO[C@H]1C[C@@H]2CC[C@@H](C)[C@@](O)(O2)C(=O)C(=O)N2CCCC[C@H]2C(=O)O[C@H]([C@H](C)C[C@@H]2CC[C@@H](O)[C@H](OC)C2)CC(=O)[C@H](C)/C=C(\C)[C@@H](O)[C@@H](OC)C(=O)[C@H](C)C[C@H](C)/C=C/C=C/C=C/1C [SIROLIMUS] | 9.8 | 12.01

— ChEMBL document CHEMBL1128753, “Synthesis and bioactivity of photolabile sirolimus (rapamycin) analogs” (Bioorg Med Chem Lett, 1995)
